From the kinase profiling compilation of Christmann-Franck et al. (2016)

What was measured:
Test in all cases: KINOMEscan competition binding
Conditions in all cases: compound 10.0 µM
TSSK1B (human) = TSSK1B (human) (UniProt Q9BXA7)
MARK3 (human) = MARK3 (human) (UniProt P27448)
EPHB2 (human) = EPHB2 (human) (UniProt P29323)
STK10 (human) = STK10 (human) (UniProt O94804)
STK4 (human) = STK4 (human) (UniProt Q13043)
AKT1 (human) = AKT1 (human) (UniProt P31749)
[1] = system: KIT (human), P10721 [D816V]
DAPK3 (human) = DAPK3 (human) (UniProt O43293)
MAP3K3 (human) = MAP3K3 (human) (UniProt Q99759)
MAP3K3 (human), sequence (Q99759 whole entry, looked up): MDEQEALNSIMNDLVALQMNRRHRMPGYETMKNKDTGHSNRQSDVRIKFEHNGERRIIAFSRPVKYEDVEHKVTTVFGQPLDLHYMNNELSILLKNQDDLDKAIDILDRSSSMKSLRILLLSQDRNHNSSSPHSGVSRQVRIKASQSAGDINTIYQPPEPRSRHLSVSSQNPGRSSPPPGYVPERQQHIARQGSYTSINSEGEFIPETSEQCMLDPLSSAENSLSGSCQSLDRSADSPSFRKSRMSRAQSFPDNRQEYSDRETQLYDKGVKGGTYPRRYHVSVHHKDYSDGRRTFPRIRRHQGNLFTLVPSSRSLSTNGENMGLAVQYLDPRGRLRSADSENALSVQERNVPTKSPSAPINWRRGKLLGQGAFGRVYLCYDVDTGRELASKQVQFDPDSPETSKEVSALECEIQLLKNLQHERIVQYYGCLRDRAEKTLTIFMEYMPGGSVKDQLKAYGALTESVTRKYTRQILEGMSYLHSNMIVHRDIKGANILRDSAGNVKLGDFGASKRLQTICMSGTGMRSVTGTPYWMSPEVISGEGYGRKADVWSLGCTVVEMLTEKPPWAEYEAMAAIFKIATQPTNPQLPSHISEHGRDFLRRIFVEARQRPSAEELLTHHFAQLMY

LIMK2 (human) = LIMK2 (human) (UniProt P53671)
LIMK2 (human), sequence (P53671 whole entry, looked up): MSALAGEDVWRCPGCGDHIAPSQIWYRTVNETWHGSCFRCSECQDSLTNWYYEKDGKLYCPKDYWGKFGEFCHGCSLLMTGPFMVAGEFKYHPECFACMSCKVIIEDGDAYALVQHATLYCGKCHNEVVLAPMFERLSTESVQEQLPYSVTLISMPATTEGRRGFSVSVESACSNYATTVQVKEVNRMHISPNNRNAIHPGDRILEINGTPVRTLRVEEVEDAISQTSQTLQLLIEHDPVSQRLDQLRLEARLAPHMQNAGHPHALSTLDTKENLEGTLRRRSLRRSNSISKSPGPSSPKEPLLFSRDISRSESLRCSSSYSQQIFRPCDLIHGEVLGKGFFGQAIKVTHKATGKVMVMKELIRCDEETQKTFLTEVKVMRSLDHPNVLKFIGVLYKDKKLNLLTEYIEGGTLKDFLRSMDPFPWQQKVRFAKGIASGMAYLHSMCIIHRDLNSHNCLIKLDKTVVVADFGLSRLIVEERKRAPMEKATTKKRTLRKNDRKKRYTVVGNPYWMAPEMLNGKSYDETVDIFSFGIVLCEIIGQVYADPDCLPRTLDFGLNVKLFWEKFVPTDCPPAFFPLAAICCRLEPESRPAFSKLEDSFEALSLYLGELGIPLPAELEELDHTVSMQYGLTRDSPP

EPHB3 (human) = EPHB3 (human) (UniProt P54753)
PTK2 (human) = PTK2 (human) (UniProt Q05397)
ADCK3 (human) = ADCK3 (human) (UniProt Q8NI60)
NLK (human) = NLK (human) (UniProt Q9UBE8)
DCLK1 (human) = DCLK1 (human) (UniProt O15075)
RPS6KA4 KD1 (human) = RPS6KA4 KD1 (human) (UniProt O75676)
RPS6KA4 KD1 (human), sequence (O75676 whole entry, looked up): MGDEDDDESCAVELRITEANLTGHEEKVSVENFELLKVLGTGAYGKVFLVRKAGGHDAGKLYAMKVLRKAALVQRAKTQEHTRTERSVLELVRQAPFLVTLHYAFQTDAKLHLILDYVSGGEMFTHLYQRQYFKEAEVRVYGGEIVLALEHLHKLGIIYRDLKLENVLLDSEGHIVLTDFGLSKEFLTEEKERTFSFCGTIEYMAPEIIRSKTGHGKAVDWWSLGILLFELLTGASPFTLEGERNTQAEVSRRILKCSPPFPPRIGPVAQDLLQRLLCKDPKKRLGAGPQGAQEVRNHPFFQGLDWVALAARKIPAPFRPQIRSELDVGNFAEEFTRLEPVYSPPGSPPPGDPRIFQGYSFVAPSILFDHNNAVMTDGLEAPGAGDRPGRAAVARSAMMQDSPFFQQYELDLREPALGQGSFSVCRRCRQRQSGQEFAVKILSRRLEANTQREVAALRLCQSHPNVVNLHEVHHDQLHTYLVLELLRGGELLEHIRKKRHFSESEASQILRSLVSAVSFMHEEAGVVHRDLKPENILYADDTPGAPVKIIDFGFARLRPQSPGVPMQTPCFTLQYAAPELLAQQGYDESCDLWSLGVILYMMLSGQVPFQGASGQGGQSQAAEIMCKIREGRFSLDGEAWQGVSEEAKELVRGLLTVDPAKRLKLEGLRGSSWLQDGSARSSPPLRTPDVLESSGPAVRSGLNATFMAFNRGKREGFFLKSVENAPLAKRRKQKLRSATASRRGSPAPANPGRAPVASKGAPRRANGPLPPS

ERBB4 (human) = ERBB4 (human) (UniProt Q15303)
PLK3 (human) = PLK3 (human) (UniProt Q9H4B4)
PLK3 (human), sequence (Q9H4B4 whole entry, looked up): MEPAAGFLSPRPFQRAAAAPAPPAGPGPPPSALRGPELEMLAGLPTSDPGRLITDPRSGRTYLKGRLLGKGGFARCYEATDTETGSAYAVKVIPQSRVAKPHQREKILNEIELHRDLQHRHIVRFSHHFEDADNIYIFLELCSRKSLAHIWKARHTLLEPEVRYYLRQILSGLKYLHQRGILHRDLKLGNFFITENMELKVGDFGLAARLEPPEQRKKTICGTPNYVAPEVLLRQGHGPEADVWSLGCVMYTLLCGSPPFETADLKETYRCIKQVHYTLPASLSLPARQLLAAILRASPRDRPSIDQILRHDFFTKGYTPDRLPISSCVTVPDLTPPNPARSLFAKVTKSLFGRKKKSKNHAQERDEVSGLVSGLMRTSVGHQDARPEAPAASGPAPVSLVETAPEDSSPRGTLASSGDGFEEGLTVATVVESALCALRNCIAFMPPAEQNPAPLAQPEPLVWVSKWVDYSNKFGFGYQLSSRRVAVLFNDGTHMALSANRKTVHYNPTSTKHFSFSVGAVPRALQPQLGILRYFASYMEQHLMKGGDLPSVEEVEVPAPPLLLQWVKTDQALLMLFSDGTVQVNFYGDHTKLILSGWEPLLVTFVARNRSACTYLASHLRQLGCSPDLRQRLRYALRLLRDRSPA

SGK110 (human) = SGK110 (human) (UniProt P0C264)
SGK110 (human), sequence (P0C264 whole entry, looked up): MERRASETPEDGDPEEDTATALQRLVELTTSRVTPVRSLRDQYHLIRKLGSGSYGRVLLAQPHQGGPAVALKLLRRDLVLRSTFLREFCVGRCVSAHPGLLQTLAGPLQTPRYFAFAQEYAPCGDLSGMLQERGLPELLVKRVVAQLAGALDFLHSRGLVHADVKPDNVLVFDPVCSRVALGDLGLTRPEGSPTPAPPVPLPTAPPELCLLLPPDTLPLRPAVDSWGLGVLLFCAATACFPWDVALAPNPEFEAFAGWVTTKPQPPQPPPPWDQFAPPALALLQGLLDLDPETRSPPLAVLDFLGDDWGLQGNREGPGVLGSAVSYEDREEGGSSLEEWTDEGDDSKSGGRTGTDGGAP

MAPK11 (human) = MAPK11 (human) (UniProt Q15759)
PDPK1 (human) = PDPK1 (human) (UniProt O15530)
MAPK1 (human) = MAPK1 (human) (UniProt P28482)
STK16 (human) = STK16 (human) (UniProt O75716)
MAPK15 (human) = MAPK15 (human) (UniProt Q8TD08)
TGFBR2 (human) = TGFBR2 (human) (UniProt P37173)
TGFBR2 (human), sequence (P37173 whole entry, looked up): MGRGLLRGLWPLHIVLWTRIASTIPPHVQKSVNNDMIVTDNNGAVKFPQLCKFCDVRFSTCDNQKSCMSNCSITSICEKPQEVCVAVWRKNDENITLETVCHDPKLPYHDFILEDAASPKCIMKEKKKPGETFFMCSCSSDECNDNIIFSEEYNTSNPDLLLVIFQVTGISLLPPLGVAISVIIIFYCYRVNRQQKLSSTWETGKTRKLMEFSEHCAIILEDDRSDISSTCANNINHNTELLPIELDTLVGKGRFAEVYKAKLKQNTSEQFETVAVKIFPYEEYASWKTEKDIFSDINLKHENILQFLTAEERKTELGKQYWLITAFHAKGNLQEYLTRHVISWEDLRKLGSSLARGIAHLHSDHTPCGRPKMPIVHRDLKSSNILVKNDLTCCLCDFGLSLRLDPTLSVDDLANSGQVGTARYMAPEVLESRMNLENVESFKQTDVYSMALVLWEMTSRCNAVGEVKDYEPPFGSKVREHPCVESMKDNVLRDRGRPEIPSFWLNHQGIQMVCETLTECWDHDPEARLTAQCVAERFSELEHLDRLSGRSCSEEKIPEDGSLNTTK

TAOK3 (human) = TAOK3 (human) (UniProt Q9H2K8)
MAPKAPK5 (human) = MAPKAPK5 (human) (UniProt Q8IW41)
CDK11B (human) = CDK11B (human) (UniProt P21127)
CDK11B (human), sequence (P21127 whole entry, looked up): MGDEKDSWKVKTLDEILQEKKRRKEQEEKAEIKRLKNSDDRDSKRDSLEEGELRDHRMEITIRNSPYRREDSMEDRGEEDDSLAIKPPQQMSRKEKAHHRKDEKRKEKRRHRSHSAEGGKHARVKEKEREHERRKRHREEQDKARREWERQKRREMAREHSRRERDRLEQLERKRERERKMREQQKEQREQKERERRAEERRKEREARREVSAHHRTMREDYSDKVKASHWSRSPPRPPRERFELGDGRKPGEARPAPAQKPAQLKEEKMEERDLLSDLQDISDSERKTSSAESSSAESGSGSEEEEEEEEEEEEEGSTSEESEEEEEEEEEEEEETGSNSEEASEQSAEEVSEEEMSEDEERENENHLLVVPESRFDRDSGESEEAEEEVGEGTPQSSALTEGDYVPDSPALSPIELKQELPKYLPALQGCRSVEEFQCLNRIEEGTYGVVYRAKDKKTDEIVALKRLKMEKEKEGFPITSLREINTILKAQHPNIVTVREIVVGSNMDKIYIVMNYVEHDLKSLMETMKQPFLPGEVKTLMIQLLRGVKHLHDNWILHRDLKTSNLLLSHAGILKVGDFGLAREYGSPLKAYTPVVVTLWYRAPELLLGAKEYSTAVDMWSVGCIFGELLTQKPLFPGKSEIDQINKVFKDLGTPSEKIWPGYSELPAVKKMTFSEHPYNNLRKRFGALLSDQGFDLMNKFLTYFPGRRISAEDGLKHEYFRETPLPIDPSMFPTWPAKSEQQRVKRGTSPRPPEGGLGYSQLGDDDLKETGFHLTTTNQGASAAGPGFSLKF

PIP5K1A (human) = PIP5K1A (human) (UniProt Q99755)
PIP4K2B (human) = PIP4K2B (human) (UniProt P78356)
PTK6 (human) = PTK6 (human) (UniProt Q13882)
MAP2K6 (human) = MAP2K6 (human) (UniProt P52564)
NEK7 (human) = NEK7 (human) (UniProt Q8TDX7)
CDC2L2 (human) = CDC2L2 (human) (UniProt Q9UQ88)
IKBKE (human) = IKBKE (human) (UniProt Q14164)
LTK (human) = LTK (human) (UniProt P29376)
AKT2 (human) = AKT2 (human) (UniProt P31751)
FES (human) = FES (human) (UniProt P07332)
TESK1 (human) = TESK1 (human) (UniProt Q15569)
TESK1 (human), sequence (Q15569 whole entry, looked up): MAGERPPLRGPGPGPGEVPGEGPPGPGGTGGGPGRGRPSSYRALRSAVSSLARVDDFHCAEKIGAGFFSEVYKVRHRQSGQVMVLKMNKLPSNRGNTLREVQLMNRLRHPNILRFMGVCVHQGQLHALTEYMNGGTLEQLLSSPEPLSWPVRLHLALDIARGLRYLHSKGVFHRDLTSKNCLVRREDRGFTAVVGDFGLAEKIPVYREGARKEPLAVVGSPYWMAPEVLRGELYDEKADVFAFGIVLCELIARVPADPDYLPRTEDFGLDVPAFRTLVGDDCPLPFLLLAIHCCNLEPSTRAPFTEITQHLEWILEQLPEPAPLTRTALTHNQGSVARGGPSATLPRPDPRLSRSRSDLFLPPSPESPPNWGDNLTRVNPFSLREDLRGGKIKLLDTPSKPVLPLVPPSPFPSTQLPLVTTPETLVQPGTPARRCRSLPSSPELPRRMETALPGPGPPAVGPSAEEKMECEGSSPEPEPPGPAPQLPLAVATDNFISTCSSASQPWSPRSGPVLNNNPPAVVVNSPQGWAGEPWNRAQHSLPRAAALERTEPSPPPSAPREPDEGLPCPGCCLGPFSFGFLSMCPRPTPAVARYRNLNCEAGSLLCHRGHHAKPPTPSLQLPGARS

MAPK6 (human) = MAPK6 (human) (UniProt Q16659)

Compound	kinase still bound, per cent of control (TSSK1B (human))	kinase still bound, per cent of control (MARK3 (human))	kinase still bound, per cent of control (EPHB2 (human))	kinase still bound, per cent of control (STK10 (human))	kinase still bound, per cent of control (STK4 (human))	kinase still bound, per cent of control (AKT1 (human))	kinase still bound, per cent of control [1]	kinase still bound, per cent of control (DAPK3 (human))	kinase still bound, per cent of control (MAP3K3 (human))	kinase still bound, per cent of control (LIMK2 (human))	kinase still bound, per cent of control (EPHB3 (human))	kinase still bound, per cent of control (PTK2 (human))	kinase still bound, per cent of control (ADCK3 (human))	kinase still bound, per cent of control (NLK (human))	kinase still bound, per cent of control (DCLK1 (human))	kinase still bound, per cent of control (RPS6KA4 KD1 (human))	kinase still bound, per cent of control (ERBB4 (human))	kinase still bound, per cent of control (PLK3 (human))	kinase still bound, per cent of control (SGK110 (human))	kinase still bound, per cent of control (MAPK11 (human))	also measured
Cc1cc([C@@H](C)Nc2ccccc2C(=O)O)c2nc(N3CCOCC3)cc(=O)n2c1	100%	89%	100%	100%	95%	100%	81%	100%	87%	100%	100%	88%	86%	94%	78%	94%	100%	89%	100%	91%	kinase still bound, per cent of control (PDPK1 (human)): 100%; kinase still bound, per cent of control (MAPK1 (human)): 100%; kinase still bound, per cent of control (STK16 (human)): 77%; kinase still bound, per cent of control (MAPK15 (human)): 100%; kinase still bound, per cent of control (TGFBR2 (human)): 95%; kinase still bound, per cent of control (TAOK3 (human)): 100%; kinase still bound, per cent of control (MAPKAPK5 (human)): 100%; kinase still bound, per cent of control (CDK11B (human)): 100%; kinase still bound, per cent of control (PIP5K1A (human)): 100%; kinase still bound, per cent of control (PIP4K2B (human)): 100%; kinase still bound, per cent of control (PTK6 (human)): 75%; kinase still bound, per cent of control (MAP2K6 (human)): 92%; kinase still bound, per cent of control (NEK7 (human)): 100%; kinase still bound, per cent of control (CDC2L2 (human)): 100%; kinase still bound, per cent of control (IKBKE (human)): 85%; kinase still bound, per cent of control (LTK (human)): 95%; kinase still bound, per cent of control (AKT2 (human)): 86%; kinase still bound, per cent of control (FES (human)): 94%; kinase still bound, per cent of control (TESK1 (human)): 100%; kinase still bound, per cent of control (MAPK6 (human)): 100%
OCCCNc1cc(-c2ccnc(Nc3cccc(Cl)c3)n2)ccn1	100%	100%	100%	100%	100%	100%	100%	100%	100%	100%	100%	100%	100%	100%	100%	100%	100%	100%	100%	100%	kinase still bound, per cent of control (PDPK1 (human)): 100%; kinase still bound, per cent of control (MAPK1 (human)): 100%; kinase still bound, per cent of control (STK16 (human)): 100%; kinase still bound, per cent of control (MAPK15 (human)): 2%; kinase still bound, per cent of control (TGFBR2 (human)): 100%; kinase still bound, per cent of control (TAOK3 (human)): 100%; kinase still bound, per cent of control (MAPKAPK5 (human)): 100%; kinase still bound, per cent of control (CDK11B (human)): 100%; kinase still bound, per cent of control (PIP5K1A (human)): 100%; kinase still bound, per cent of control (PIP4K2B (human)): 100%; kinase still bound, per cent of control (PTK6 (human)): 100%; kinase still bound, per cent of control (MAP2K6 (human)): 100%; kinase still bound, per cent of control (NEK7 (human)): 100%; kinase still bound, per cent of control (CDC2L2 (human)): 100%; kinase still bound, per cent of control (IKBKE (human)): 100%; kinase still bound, per cent of control (LTK (human)): 100%; kinase still bound, per cent of control (AKT2 (human)): 100%; kinase still bound, per cent of control (FES (human)): 100%; kinase still bound, per cent of control (TESK1 (human)): 100%; kinase still bound, per cent of control (MAPK6 (human)): 100%
Cc1ccc(C(=O)Nc2cccc(C(F)(F)F)c2)cc1Nc1cncc(C(N)=O)c1	100%	100%	1.6%	100%	100%	100%	100%	100%	100%	100%	3.3%	100%	100%	100%	100%	100%	100%	100%	100%	100%	kinase still bound, per cent of control (PDPK1 (human)): 100%; kinase still bound, per cent of control (MAPK1 (human)): 100%; kinase still bound, per cent of control (STK16 (human)): 100%; kinase still bound, per cent of control (MAPK15 (human)): 100%; kinase still bound, per cent of control (TGFBR2 (human)): 100%; kinase still bound, per cent of control (TAOK3 (human)): 100%; kinase still bound, per cent of control (MAPKAPK5 (human)): 100%; kinase still bound, per cent of control (CDK11B (human)): 100%; kinase still bound, per cent of control (PIP5K1A (human)): 100%; kinase still bound, per cent of control (PIP4K2B (human)): 100%; kinase still bound, per cent of control (PTK6 (human)): 100%; kinase still bound, per cent of control (MAP2K6 (human)): 100%; kinase still bound, per cent of control (NEK7 (human)): 100%; kinase still bound, per cent of control (CDC2L2 (human)): 100%; kinase still bound, per cent of control (IKBKE (human)): 100%; kinase still bound, per cent of control (LTK (human)): 100%; kinase still bound, per cent of control (AKT2 (human)): 100%; kinase still bound, per cent of control (FES (human)): 100%; kinase still bound, per cent of control (TESK1 (human)): 100%; kinase still bound, per cent of control (MAPK6 (human)): 100%
